From ChEMBL document CHEMBL5465560, “Selectivity Literature for EUbOPEN Chemogenomic Library” (2024)

What was measured:
[1] = biological target: T1, Serine/threonine-protein kinase Chk1 (Homo sapiens) (UniProt O14757); experiment: Selectivity interaction (Kinase panel (KiNativ target engagement assay in Jurkat cells)) EUB0001635a CHEK1; format: cell-based; settings: at 1 µM
T1 sequence (whole entry): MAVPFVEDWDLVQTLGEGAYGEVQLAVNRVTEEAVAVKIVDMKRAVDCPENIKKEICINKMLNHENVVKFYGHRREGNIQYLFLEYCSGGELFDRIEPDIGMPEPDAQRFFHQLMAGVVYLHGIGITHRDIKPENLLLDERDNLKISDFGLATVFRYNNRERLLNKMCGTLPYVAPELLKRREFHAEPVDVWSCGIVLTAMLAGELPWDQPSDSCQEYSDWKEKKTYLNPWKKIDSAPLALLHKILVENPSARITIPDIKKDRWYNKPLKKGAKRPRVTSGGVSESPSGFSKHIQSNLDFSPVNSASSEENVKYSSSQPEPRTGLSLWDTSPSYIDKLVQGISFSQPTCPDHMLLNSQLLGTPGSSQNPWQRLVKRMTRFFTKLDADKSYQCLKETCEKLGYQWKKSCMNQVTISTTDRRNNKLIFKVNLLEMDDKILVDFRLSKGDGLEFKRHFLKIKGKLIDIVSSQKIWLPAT

[2] = biological target: Bromodomain-containing protein 2 (Homo sapiens) (UniProt P25440); experiment: Selectivity interaction (Human bromodomain panel (DSF assay)) EUB0000233b BRD2
[3] = biological target: T2, Activin receptor type-1B (Homo sapiens) (UniProt P36896); experiment: Selectivity interaction (Kinase panel (Z-LYTE Assay)) EUB0001632a ACVR1B; settings: at 10 µM
T2 sequence (whole entry): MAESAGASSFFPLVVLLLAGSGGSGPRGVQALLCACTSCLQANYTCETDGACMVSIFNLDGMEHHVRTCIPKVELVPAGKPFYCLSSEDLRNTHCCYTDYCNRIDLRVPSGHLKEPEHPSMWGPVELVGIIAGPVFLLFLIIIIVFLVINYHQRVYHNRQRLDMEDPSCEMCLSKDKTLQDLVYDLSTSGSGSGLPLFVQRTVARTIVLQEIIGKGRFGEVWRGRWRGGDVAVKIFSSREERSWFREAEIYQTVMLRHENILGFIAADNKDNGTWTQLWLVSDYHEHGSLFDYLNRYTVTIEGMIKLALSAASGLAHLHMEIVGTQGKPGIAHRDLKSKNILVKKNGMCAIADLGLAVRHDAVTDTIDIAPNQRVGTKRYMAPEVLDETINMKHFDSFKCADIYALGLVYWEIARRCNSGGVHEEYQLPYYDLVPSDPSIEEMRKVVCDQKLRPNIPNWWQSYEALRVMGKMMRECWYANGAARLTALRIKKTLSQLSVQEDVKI

[4] = biological target: Serine/threonine-protein kinase RIO2 (Homo sapiens) (UniProt Q9BVS4); settings: at 10 µM
[5] = biological target: Serine/threonine-protein kinase PRP4 homolog (Homo sapiens) (UniProt Q13523); settings: at 10 µM
[6] = biological target: cAMP-dependent protein kinase catalytic subunit alpha (Homo sapiens, UniProt P17612); experiment: Selectivity interaction (Upstate Kinase Profiler service (Millipore)) EUB0000056c PRKACA; settings: at 1 µM
[7] = biological target: Muscarinic acetylcholine receptor M3 (Homo sapiens, UniProt P20309); experiment: Selectivity interaction (Muscarinic M3 receptor assay, human recombinant ) EUB0000877a CHRM3
[8] = biological target: Phosphorylase b kinase gamma catalytic chain, skeletal muscle/heart isoform (Homo sapiens) (UniProt Q16816); experiment: Selectivity interaction (ProQinase) EUB0000171b PHKG1
[9] = biological target: Proto-oncogene tyrosine-protein kinase Src (Homo sapiens, UniProt P12931); experiment: Selectivity interaction (ActivX KiNativ screen (ex vivo kinase selectivity in human PBMCs)) EUB0001619a SRC; format: cell-based; settings: PBMC, at 1 µM
[10] = biological target: RAC-beta serine/threonine-protein kinase (Homo sapiens) (UniProt P31751); experiment: Selectivity interaction (SelectScreen profiling (Invitrogen)) EUB0000607a AKT2; settings: at 2 µM
[11] = biological target: Serine/threonine-protein kinase N2 (Homo sapiens, UniProt Q16513); experiment: Selectivity interaction (KinomeScan (DiscoverX)) EUB0000618a PKN2; settings: at 10 µM
[12] = biological target: Mitogen-activated protein kinase kinase kinase 11 (Homo sapiens) (UniProt Q16584); experiment: Selectivity interaction (ActivX KiNativ screen (kinase selectivity in THP-1 cell lysates)) EUB0000639a MAP3K11; format: subcellular; settings: lysate, at 1 µM
[13] = biological target: Mitogen-activated protein kinase 14 (Homo sapiens, UniProt Q16539); experiment: Selectivity interaction (Kinase panel (Invitrogen)) EUB0000639a MAPK14; settings: at 200 nM
[14] = biological target: T3, Protein kinase C iota type (Homo sapiens) (UniProt P41743); experiment: Selectivity interaction (KinomeScan (DiscoverX)) EUB0000092b PRKCI; settings: at 10 µM
T3 sequence (whole entry): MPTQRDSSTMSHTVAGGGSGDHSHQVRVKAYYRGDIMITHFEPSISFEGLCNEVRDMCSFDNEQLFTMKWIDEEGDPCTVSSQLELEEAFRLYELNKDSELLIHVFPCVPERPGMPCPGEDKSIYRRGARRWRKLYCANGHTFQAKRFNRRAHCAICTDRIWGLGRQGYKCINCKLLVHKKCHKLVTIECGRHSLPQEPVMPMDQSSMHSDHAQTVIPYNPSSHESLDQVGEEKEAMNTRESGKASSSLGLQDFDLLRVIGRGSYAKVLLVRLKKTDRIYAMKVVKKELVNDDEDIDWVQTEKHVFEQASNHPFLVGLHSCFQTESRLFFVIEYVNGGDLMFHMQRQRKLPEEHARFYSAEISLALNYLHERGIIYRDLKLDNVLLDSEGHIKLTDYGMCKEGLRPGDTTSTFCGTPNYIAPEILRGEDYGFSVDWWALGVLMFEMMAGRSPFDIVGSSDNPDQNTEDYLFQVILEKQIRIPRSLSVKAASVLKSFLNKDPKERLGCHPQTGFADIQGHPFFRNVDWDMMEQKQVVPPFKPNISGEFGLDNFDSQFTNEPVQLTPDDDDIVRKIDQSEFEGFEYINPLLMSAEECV

Phosphorylase b kinase gamma catalytic chain, skeletal muscle/heart isoform (Homo sapiens), sequence (Q16816 whole entry, looked up, canonical isoform): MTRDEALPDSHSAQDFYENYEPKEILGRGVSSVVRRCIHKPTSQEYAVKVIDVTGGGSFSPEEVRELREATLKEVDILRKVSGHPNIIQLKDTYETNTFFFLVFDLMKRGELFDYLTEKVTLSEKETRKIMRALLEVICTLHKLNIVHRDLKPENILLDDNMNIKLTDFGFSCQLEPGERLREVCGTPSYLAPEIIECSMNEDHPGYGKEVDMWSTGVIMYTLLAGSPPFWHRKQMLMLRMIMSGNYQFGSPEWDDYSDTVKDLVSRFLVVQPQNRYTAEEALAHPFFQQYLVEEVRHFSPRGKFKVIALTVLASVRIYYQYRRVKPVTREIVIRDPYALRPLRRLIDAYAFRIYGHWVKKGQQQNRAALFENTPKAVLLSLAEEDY
Mitogen-activated protein kinase kinase kinase 11 (Homo sapiens), sequence (Q16584 whole entry, looked up): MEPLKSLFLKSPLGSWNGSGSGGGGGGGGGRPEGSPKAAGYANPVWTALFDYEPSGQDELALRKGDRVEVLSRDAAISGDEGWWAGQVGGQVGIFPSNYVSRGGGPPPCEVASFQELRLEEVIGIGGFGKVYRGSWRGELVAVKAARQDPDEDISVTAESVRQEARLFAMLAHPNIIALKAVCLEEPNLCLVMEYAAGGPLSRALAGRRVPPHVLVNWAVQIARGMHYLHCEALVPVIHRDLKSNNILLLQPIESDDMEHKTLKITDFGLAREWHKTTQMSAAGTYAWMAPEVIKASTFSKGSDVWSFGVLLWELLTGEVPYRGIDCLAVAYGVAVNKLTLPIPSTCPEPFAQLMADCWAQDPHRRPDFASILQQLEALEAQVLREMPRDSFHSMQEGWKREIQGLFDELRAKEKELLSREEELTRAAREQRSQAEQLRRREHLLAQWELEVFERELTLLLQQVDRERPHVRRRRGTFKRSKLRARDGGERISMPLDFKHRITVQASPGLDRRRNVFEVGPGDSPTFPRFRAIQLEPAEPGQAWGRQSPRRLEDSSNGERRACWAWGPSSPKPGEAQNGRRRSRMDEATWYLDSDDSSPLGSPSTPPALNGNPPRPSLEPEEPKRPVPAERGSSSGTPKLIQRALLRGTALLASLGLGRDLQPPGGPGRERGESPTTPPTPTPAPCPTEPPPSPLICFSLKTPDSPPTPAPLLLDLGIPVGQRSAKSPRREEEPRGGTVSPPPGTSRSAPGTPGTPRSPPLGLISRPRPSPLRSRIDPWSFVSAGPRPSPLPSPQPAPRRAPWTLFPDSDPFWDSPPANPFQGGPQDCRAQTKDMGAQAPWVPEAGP
Serine/threonine-protein kinase N2, sequence (Q16513 whole entry, looked up): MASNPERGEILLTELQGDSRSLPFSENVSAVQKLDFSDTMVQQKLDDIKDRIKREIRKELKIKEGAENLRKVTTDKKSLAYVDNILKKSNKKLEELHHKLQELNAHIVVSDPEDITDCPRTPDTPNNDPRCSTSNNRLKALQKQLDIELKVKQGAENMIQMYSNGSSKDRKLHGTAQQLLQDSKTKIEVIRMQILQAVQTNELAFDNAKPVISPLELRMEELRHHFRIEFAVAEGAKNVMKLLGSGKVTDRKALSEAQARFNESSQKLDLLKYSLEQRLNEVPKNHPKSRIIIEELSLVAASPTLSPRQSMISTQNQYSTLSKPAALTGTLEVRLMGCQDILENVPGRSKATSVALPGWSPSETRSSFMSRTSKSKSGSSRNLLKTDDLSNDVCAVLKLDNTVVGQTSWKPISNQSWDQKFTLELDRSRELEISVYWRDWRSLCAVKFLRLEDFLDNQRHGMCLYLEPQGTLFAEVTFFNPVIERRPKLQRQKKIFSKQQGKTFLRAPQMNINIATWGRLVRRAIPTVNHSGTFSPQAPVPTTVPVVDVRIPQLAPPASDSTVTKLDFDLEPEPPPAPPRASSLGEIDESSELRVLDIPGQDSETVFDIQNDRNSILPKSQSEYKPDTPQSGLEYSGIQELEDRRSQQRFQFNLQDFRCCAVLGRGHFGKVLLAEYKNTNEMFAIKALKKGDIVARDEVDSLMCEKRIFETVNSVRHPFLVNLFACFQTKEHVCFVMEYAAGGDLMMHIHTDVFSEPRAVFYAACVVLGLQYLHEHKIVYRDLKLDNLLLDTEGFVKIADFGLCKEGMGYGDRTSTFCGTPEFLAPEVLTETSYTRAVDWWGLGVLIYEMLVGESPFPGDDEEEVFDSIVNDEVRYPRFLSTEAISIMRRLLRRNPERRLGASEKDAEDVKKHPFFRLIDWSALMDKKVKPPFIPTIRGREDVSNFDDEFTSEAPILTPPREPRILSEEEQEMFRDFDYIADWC
Muscarinic acetylcholine receptor M3, sequence (P20309 whole entry, canonical isoform): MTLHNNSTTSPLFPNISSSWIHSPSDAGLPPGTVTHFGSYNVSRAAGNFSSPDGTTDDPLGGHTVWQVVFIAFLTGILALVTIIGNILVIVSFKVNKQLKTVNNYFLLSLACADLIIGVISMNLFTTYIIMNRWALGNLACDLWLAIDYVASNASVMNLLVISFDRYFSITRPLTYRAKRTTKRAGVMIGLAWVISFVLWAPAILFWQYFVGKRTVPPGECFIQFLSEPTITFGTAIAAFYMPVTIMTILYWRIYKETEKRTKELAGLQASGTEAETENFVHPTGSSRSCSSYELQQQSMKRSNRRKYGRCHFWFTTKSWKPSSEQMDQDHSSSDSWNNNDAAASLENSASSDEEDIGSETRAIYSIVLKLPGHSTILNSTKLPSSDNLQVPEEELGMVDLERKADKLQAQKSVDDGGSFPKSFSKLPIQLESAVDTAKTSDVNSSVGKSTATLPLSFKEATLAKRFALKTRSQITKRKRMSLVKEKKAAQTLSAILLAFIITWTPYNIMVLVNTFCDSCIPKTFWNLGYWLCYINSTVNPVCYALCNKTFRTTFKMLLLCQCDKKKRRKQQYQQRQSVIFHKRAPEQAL
Bromodomain-containing protein 2 (Homo sapiens), sequence (P25440 whole entry, looked up): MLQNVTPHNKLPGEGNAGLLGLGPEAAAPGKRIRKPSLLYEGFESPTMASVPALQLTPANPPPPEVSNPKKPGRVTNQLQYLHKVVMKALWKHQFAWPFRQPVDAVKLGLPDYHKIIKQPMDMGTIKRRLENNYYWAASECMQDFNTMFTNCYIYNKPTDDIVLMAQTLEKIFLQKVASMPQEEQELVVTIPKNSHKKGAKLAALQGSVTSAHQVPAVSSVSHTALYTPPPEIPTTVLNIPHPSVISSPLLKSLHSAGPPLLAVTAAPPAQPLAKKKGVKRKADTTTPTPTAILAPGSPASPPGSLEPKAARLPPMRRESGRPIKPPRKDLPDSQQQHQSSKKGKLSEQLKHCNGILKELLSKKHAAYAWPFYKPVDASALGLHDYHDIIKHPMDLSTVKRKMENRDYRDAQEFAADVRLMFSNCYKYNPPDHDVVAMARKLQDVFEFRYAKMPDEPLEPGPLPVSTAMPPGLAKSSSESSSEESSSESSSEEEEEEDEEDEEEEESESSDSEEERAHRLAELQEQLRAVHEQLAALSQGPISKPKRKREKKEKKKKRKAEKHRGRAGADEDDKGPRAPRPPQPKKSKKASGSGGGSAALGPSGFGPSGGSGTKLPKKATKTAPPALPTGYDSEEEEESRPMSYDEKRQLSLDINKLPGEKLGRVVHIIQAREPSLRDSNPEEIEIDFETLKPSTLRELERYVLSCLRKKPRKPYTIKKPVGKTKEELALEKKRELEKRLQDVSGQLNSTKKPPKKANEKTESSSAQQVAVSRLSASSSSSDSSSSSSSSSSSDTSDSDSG
RAC-beta serine/threonine-protein kinase (Homo sapiens), sequence (P31751 whole entry): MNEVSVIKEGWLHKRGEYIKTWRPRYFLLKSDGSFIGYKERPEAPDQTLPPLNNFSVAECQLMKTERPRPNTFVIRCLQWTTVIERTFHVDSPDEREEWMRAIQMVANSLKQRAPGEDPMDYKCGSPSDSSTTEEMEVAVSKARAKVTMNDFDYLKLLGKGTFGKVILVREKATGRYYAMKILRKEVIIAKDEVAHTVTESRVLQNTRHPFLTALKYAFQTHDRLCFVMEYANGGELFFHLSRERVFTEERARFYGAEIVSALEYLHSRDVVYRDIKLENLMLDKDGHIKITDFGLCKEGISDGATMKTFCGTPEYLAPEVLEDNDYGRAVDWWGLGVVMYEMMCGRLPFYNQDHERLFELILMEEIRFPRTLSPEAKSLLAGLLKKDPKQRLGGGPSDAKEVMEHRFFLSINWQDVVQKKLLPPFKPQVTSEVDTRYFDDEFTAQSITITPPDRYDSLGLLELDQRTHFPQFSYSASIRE
Mitogen-activated protein kinase 14, sequence (Q16539 whole entry): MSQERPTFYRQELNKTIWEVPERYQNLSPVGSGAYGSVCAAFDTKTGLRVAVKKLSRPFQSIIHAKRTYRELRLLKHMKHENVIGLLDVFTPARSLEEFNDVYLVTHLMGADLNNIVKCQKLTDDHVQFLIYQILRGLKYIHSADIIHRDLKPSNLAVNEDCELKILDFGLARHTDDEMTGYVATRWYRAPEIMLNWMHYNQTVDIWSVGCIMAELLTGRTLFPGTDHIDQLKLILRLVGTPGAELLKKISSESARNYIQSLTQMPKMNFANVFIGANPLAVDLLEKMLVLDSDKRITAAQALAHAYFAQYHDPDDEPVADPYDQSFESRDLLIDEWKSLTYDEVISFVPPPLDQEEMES
Proto-oncogene tyrosine-protein kinase Src, sequence (P12931 2-536 limits assumed): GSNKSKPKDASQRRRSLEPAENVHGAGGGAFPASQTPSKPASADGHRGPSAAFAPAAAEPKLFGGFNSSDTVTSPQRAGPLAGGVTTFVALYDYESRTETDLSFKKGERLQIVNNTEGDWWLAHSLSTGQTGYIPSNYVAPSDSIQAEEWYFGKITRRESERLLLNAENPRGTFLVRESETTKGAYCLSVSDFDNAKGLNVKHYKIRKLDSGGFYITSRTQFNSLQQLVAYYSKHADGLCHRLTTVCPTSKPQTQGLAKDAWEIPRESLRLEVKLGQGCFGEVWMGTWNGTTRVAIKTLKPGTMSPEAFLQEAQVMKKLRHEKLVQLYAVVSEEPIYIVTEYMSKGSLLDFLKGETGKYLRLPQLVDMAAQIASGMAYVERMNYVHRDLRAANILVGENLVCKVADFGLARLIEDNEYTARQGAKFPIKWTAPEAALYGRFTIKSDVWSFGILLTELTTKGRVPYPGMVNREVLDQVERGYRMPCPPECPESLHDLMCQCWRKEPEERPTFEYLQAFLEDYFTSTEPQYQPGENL

Which results are given for C=CC(=O)Nc1ccc(C(=O)Nc2[nH]nc3c2CN(C(=O)N[C@H](CN(C)C)c2ccccc2)C3(C)C)cc1?
% of engagement ([1]; Selectivity number of off-targets 0.0, Selectivity number of targets 233.0, Source Knowledge https://www.sciencedirect.com/science/article/pii/S2451945619300674?via%3Dihub): 5.4%; % of engagement [1]: 16.4%

CN(C)CCCOc1ccc(-c2cc(NCCCn3cccn3)nc(S(C)(=O)=O)n2)cc1 was tested. Which dTM [2] did it give?
The dTM was < 2 K.

How did the % of control [3] turn out when Cn1cc(-n2cnc3c(NCc4nc5cc(Cl)c(Cl)cc5[nH]4)nc(N4CCOCC4)nc32)cn1 was run?
Its % of control is 5.65%.

Which results are given for Cc1cc([C@@H](C)Nc2ccccc2C(=O)O)c2nc(N3CCOCC3)cc(=O)n2c1 [AZD-6482]?
% of control [4]: 54%; % of control [5]: 71%

For Cc1ccc(-c2ccc3c(ccc4sc5c(c43)NC[C@@H](C)NC5=O)n2)cn1, which % of inhibition [6] is on record?
Its % of inhibition is 14%.

With CCC(=O)N1CC[C@H](Nc2ncnc3c2CN(c2cnc(OC)c(C(F)(F)F)c2)CC3)C1 [LENIOLISIB] as the compound, how does the IC50 [7] read?
Its IC50 is > 30 µM.

What does the source list for C=CC(=O)Nc1cccc(C(=O)Nc2ccc(Nc3cc(-c4[nH]c(SC)nc4C)ccn3)cc2)c1?
% of control ([8]; at 1 µM): 80%; % of control ([8]; at 5 µM): 44%

Which % of inhibition [9] does the source give for N#Cc1cccc(-c2c[nH]c3ncnc(N4CCOCC4)c23)c1 here?
Its % of inhibition is 30%.

For CNC(=O)Nc1ccc(-c2nc(N3CC4CCC(C3)O4)c3cnn(C4CCC5(CC4)OCCO5)c3n2)cc1, which % of inhibition [10] is on record?
Its % of inhibition is 5%.

How did the % of control [11] turn out when O[C@H]1CC[C@H](Nc2ncc3nc(Nc4c(F)cc(F)cc4F)n([C@H]4CCOC4)c3n2)CC1 was run?
The % of control was 97%.

Which % of inhibition [12] does the source give for CC[C@@H]1[C@H](F)C(=O)N[C@@H]1COc1nccc2cc(C(N)=O)c(OC)cc12 [ZIMLOVISERTIB] here?
The % of inhibition was -22.3%.

And the % of inhibition [13]?
The % of inhibition was 18.3%.

For CCC(=O)N1CCN(c2ccc(-n3c(=O)ccc4cnc5ccc(-c6cnc7ccccc7c6)cc5c43)cc2C(F)(F)F)CC1, which % of control [14] is on record?
The % of control was 85%.
